Results from patent publication US20250163077A1, “MEMBRANE-ASSOCIATED TYROSINE- AND THREONINE-SPECIFIC CDC2-INHIBITORY KINASE (PKMYT1) INHIBITORS AND USES THEREOF” (Insilico Medicine IP Limited, priority 2022, published 2025).

Legend:
WEE1 = WEE1 (Homo sapiens (Human), UniProt P30291); assay: WEE1 ADP-Glo Assay; type: biochemical; settings: compound 10 μM to 0.5 nM
Description: Compound serial dilution is performed by Echo, and the final concentrations vary from 10 μM to 0.5 nM. This was filled by the addition of 5 μL/well of Enzyme solution to the assay plate containing the compound. The plate was centrifuged at 1000 rpm for 1 minute, and incubate 15 minutes at 25° C. Then 5 μL/well of substrate solution was added to initiate the reaction, and incubate for 60 minutes at 25° C. Next 10 μL kinase detection reagent was added into the assay plate, the plate was centrifuged at 1000 rpm for 1 minute, and incubate for 60 minutes at […]. The assay plate was read on Envision for US LUM as RLU.

PKMYT1 = PKMYT1 (Homo sapiens (Human), UniProt Q99640); assay: PKMYT1 HTRF Assay; type: binding; settings: Tracer 178, compound 10 μM to 0.5 nM, read-out: MYT1 HTRF IC50
Description: Compound serial dilution is performed by Echo, and the final concentrations vary from 10 μM to 0.5 nM. This was filled by the addition of 5 μL/well of Enzyme solution to the assay plate containing the compound. The plate was centrifuged at 1000 rpm for 1 minute, and incubate 15 minutes at 25° C. […] Next 5 μL GST-Tb was added into the assay plate, the plate was centrifuged at 1000 rpm for 1 minute, and incubate for 15 minutes at 25° C. The assay plate was read on Envision.

Chain of WEE1 (P30291 whole entry): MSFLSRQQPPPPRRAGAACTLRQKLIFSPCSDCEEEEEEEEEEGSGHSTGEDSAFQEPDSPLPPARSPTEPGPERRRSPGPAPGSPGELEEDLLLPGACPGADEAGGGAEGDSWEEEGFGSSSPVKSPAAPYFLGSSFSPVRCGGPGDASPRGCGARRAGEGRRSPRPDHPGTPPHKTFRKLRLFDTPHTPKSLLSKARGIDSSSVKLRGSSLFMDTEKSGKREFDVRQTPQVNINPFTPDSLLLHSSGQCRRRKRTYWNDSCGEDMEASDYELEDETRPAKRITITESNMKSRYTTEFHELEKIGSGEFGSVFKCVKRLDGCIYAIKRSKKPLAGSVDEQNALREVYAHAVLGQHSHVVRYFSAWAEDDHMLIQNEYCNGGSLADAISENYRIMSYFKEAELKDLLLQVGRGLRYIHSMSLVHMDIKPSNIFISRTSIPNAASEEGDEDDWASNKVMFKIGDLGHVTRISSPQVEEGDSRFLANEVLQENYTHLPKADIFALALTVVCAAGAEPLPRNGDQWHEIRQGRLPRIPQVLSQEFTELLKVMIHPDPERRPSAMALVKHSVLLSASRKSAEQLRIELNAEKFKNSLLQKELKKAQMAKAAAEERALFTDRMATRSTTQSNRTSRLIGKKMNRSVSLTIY
Chain of PKMYT1 (Q99640 whole entry): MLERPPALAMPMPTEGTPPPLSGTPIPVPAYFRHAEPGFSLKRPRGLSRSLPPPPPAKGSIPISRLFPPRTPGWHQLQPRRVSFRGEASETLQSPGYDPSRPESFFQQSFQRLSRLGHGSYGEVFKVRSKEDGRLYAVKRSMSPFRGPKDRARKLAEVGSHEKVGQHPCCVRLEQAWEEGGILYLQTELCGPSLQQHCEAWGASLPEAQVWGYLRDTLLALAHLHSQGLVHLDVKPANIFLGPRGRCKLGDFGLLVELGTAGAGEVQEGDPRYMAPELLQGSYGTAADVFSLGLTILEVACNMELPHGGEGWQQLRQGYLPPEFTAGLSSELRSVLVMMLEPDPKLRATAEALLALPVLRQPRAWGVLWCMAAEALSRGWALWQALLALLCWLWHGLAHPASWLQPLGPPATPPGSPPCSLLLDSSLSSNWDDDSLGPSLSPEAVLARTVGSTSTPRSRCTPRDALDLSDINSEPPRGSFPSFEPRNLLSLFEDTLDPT

SMILES | IC50 (WEE1) [nM] | IC50 (PKMYT1) [nM]
Cc1ccc(O)c(C)c1-n1c(N)c(C(=O)N2CCc3ncsc3C2)c2nc(C)c(C)nc21 [Example 5, (6-amino-5-(3-hydroxy-2,6-dimethylphenyl)-2,3-dimethyl-5H-pyrrolo[2,3-b]pyrazin-7-yl)(6,7-dihydrothiazolo[5,4-c]pyridin-5(4H)-yl)methanone] | > 10000 | 10 to 50
Cc1ccc(O)c(C)c1-n1c(N)c(C(=O)N2CCn3c(nnc3C(F)(F)F)C2)c2cc(Cl)cnc21 [Example 27, (2-amino-5-chloro-1-(3-hydroxy-2,6-dimethylphenyl)-1H-pyrrolo[2,3-b]pyridin-3-yl)(3-(trifluoromethyl)-5,6-dihydro-[1,2,4]triazolo[4,3-a]pyrazin-7(8H)-yl)methanone] | > 10000 | 50 to 500
Cc1ccc(O)c(C)c1-n1c(N)c(C(=O)N2CCc3ncsc3C2)c2cc(Cl)cnc21 [Example 9, (2-amino-5-chloro-1-(3-hydroxy-2,6-dimethylphenyl)-1H-pyrrolo[2,3-b]pyridin-3-yl)(6,7-dihydrothiazolo[5,4-c]pyridin-5(4H)-yl)methanone] | > 10000 | 10 to 50
CC#Cc1nc2c(C(=O)N3CCn4nccc4C3)c(N)n(-c3c(C)ccc(O)c3C)c2nc1C [Example 40, (6-amino-5-(3-hydroxy-2,6-dimethylphenyl)-3-methyl-2-(prop-1-yn-1-yl)-5H-pyrrolo[2,3-b]pyrazin-7-yl)(6,7-dihydropyrazolo[1,5-a]pyrazin-5(4H)-yl)methanone] | – | 10 to 50
Cc1ccc(O)c(C)c1-n1c(N)c(C(=O)N2CCn3ncc(CO)c3C2)c2nc(C)c(C)nc21 [Example 16, (6-amino-5-(3-hydroxy-2,6-dimethylphenyl)-2,3-dimethyl-5H-pyrrolo[2,3-b]pyrazin-7-yl)(3-(hydroxymethyl)-6,7-dihydropyrazolo[1,5-a]pyrazin-5(4H)-yl)methanone] | > 10000 | < 10
Cc1ccc(O)c(C)c1-n1c(N)c(C(=O)N2CCn3nccc3C2)c2nc(C(F)(F)F)ncc21 [Example 38, (6-amino-5-(3-hydroxy-2,6-dimethylphenyl)-2-(trifluoromethyl)-5H-pyrrolo[3,2-d]pyrimidin-7-yl)(6,7-dihydropyrazolo[1,5-a]pyrazin-5(4H)-yl)methanone] | > 10000 | 50 to 500
Cc1cc(F)c(O)c(C)c1-n1c(N)c(C(=O)N2CCn3nccc3C2)c2nc(C)c(C)nc21 [Example 29, (6-amino-5-(4-fluoro-3-hydroxy-2,6-dimethylphenyl)-2,3-dimethyl-5H-pyrrolo[2,3-b]pyrazin-7-yl)(6,7-dihydropyrazolo[1,5-a]pyrazin-5(4H)-yl)methanone] | > 10000 | 10 to 50
Cc1ccc(O)c(C)c1-n1c(N)c(C(=O)N2CCn3nc(C(F)(F)F)nc3C2)c2cc(Cl)cnc21 [Example 12, (2-amino-5-chloro-1-(3-hydroxy-2,6-dimethylphenyl)-1H-pyrrolo[2,3-b]pyridin-3-yl)(2-(trifluoromethyl)-5,6-dihydro-[1,2,4]triazolo[1,5-a]pyrazin-7(8H)-yl)methanone] | > 10000 | 10 to 50
C=Cc1cnc2c(n1)c(C(=O)N1CCn3nccc3C1)c(N)n2-c1c(C)ccc(O)c1C [Example 33, (6-amino-5-(3-hydroxy-2,6-dimethylphenyl)-2-vinyl-5H-pyrrolo[2,3-b]pyrazin-7-yl)(6,7-dihydropyrazolo[1,5-a]pyrazin-5(4H)-yl)methanone] | > 10000 | 10 to 50
Cc1ccc(O)c(Cl)c1-n1c(N)c(C(=O)N2CCn3nccc3C2)c2nc(C)c(C)nc21 [Example 28, (6-amino-5-(2-chloro-3-hydroxy-6-methylphenyl)-2,3-dimethyl-5H-pyrrolo[2,3-b]pyrazin-7-yl)(6,7-dihydropyrazolo[1,5-a]pyrazin-5(4H)-yl)methanone] | 5430 | < 10
Cc1ccc(O)c(C)c1-n1c(N)c(C(=O)N2CCc3nn(C)cc3C2)c2nc(C)c(C)nc21 [Example 6, (6-amino-5-(3-hydroxy-2,6-dimethylphenyl)-2,3-dimethyl-5H-pyrrolo[2,3-b]pyrazin-7-yl)(2-methyl-2,4,6,7-tetrahydro-5H-pyrazolo[4,3-c]pyridin-5-yl)methanone] | > 10000 | 10 to 50
Cc1nc2n(n1)CCN(C(=O)c1c(N)n(-c3c(C)ccc(O)c3C)c3ncc(Cl)cc13)C2 [Example 10, (2-amino-5-chloro-1-(3-hydroxy-2,6-dimethylphenyl)-1H-pyrrolo[2,3-b]pyridin-3-yl)(2-methyl-5,6-dihydro-[1,2,4]triazolo[1,5-a]pyrazin-7(8H)-yl)methanone] | > 10000 | 10 to 50
Cc1ccc(O)c(C)c1-n1c(N)c(C(=O)N2CCn3nc(C(C)(C)O)cc3C2)c2nc(C)c(C)nc21 [Example 19] | – | 500 to 5000
Cc1ccc(O)c(C)c1-n1c(N)c(C(=O)N2CCc3ncccc3C2)c2nc(C)c(C)nc21 [Example 7, (6-amino-5-(3-hydroxy-2,6-dimethylphenyl)-2,3-dimethyl-5H-pyrrolo[2,3-b]pyrazin-7-yl)(7,8-dihydro-1,6-naphthyridin-6(5H)-yl)methanone] | > 10000 | < 10
Cc1cc2n(n1)CCN(C(=O)c1c(N)n(-c3c(C)ccc(O)c3C)c3ncc(Cl)cc13)C2 [Example 11, (2-amino-5-chloro-1-(3-hydroxy-2,6-dimethylphenyl)-1H-pyrrolo[2,3-b]pyridin-3-yl)(2-methyl-6,7-dihydropyrazolo[1,5-a]pyrazin-5(4H)-yl)methanone] | > 10000 | 10 to 50
Cc1ccc(O)c(C)c1-n1c(N)c(C(=O)N2CCn3nccc3C2C)c2nc(C)c(C)nc21 (stereo not drawn) [Example 26, (6-amino-5-(3-hydroxy-2,6-dimethylphenyl)-2,3-dimethyl-5H-pyrrolo[2,3-b]pyrazin-7-yl)(4-methyl-6,7-dihydropyrazolo[1,5-a]pyrazin-5(4H)-yl)methanone] | > 10000 | 500 to 5000
